According to patent publication US9963496B2, “Stable glucagon analogues and use for treatment of hypoglycaemia” (Novo Nordisk A/S, priority 2014, dated 2018):
*1 amine or outer side, *2 acyl side, *3 side chain or, on linkers, in order; H or OH if unused. Where a SMILES comes first, the peptide text is derived from it. Side-chain parts run from the residue outwards. [ ]: non-standard residue; d: D form. The star is where a group is joined. γGlu = O=C(O)[C@H](CCC(=O)[*:2])N[*:1]; Desaminohistidyl = O=C(CCc1c[nH]cn1)*; Aib = CC(C)(N)C(=O)O

Columns and labels:
[1] = physchem; format: physicochemical; conditions: pH 7.5
Procedure, shortened: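 Peptide at 250 μM in 10 mM HEPES pH 7.5 with 1 μM Thioflavin T, incubated at 37° C with 960 rpm orbital shaking. ThT fluorescence (ex 444/em 485 nm) read every 20 min; lag-time (t0−2τ) and kapp (1/τ) from curve fit. Recovery is post-assay supernatant peptide by RP-HPLC as % of initial.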

[2] = target: T1, human glucagon receptor (Homo sapiens, UniProt P47871); assay: Assay (I)(b): glucagon receptor activation, CRE luciferase reporter gene assay in BHK cells; format: cell-based; conditions: BHK cells expressing human glucagon receptor and CRE luciferase, 3 h incubation; read-out: EC50 hGlucagonR
T1 construct: expressed in transfected cells; host or cells: BHK cells, clone BHK hGCGR A3*25; isolated membranes
Procedure, shortened: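 BHK570 cells stably expressing the human glucagon receptor and CRE-luciferase, 5×10 EE3 cells/well in DMEM with 2% ovalbumin and 0.2% Pluronic F-68. Compounds at final 1×10 EE-6 to 1×10 EE-13 M, 3 h at 37° C. Luminescence read; EC50 by four-parameter fit.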

T1 sequence (P47871 26-477): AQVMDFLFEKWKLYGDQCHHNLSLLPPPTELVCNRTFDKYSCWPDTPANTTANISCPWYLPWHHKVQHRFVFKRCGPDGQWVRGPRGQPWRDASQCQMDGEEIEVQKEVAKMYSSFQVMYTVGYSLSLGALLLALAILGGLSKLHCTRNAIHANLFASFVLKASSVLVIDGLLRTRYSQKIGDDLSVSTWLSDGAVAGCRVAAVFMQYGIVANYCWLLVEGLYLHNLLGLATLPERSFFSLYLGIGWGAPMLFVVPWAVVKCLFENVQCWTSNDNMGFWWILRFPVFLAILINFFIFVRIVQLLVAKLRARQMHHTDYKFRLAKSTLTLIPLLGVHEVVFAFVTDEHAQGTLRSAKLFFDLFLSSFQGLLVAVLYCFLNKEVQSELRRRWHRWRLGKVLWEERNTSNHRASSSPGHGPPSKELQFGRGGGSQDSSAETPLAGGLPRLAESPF

Row | Compound | recovery at 250 μM [1] | EC50 [2]
1 | CC(=O)N[C@@H](CCC(=O)N[C@@H](CCC(=O)N[C@@H](CCC(=O)N[C@@H](CCC(=O)NCCCC[C@H](NC(=O)[C@@H](NC(=O)[C@H](Cc1ccccc1)NC(=O)[C@H](CC(=O)O)NC(=O)[C@H](CCC(N)=O)NC(=O)[C@H](C)NC(=O)[C@H](CCCNC(=N)N)NC(=O)[C@H](CCCNC(=N)N)NC(=O)[C@H](CC(C)C)NC(=O)[C@H](CC(=O)O)NC(=O)[C@H](CC(C)C)NC(=O)[C@H](Cc1ccc(O)cc1)NC(=O)[C@H](CCCCN)NC(=O)[C@H](CO)NC(=O)[C@H](Cc1ccc(O)cc1)NC(=O)[C@H](CC(=O)O)NC(=O)[C@H](CO)NC(=O)[C@@H](NC(=O)[C@H](Cc1ccccc1)NC(=O)[C@@H](NC(=O)CNC(=O)[C@H](Cc1c[nH]cn1)NC(=O)C(C)(C)NC(=O)CCc1c[nH]cn1)[C@@H](C)O)[C@@H](C)O)C(C)C)C(=O)N[C@@H](Cc1c[nH]c2ccccc12)C(=O)N[C@@H](CC(C)C)C(=O)N[C@@H](CC(C)C)C(=O)N[C@@H](CO)C(=O)N[C@H](C(=O)O)[C@@H](C)O)C(=O)O)C(=O)O)C(=O)O)C(=O)O [Example 1, N^ϵ24-[(4S)-4-[[(4S)-4-[[(4S)-4-[[(4S)-4-acetamido-4-carboxybutanoyl]amino]-4-carboxybutanoyl]amino]-4-carboxybutanoyl]amino]-4-carboxybutanoyl]-[Imp1, Aib2, His3, Leu16, Lys24, Leu27, Ser28]-Glucagon] (Desaminohistidyl-[Aib]HGTFTSDYSKYLDLRRAQDFVK([γGlu-γGlu-γGlu-γGlu-Ac])WLLST-OH) | 101% | 1 pM
2 | CC(=O)N[C@@H](CCC(=O)N[C@@H](CCC(=O)N[C@@H](CCC(=O)N[C@@H](CCC(=O)NCCCC[C@H](NC(=O)[C@H](CC(C)C)NC(=O)[C@H](CC(C)C)NC(=O)[C@H](Cc1c[nH]c2ccccc12)NC(=O)[C@H](C)NC(=O)[C@@H](NC(=O)[C@H](Cc1ccccc1)NC(=O)[C@H](CC(=O)O)NC(=O)[C@H](CCC(N)=O)NC(=O)[C@H](C)NC(=O)[C@H](CCCNC(=N)N)NC(=O)[C@H](CCCNC(=N)N)NC(=O)[C@H](CO)NC(=O)[C@H](CCC(=O)O)NC(=O)[C@H](CC(C)C)NC(=O)[C@H](Cc1ccc(O)cc1)NC(=O)[C@H](CCCCN)NC(=O)[C@H](CO)NC(=O)[C@H](Cc1ccc(O)cc1)NC(=O)[C@H](CC(=O)O)NC(=O)[C@H](CO)NC(=O)[C@@H](NC(=O)[C@H](Cc1ccccc1)NC(=O)[C@@H](NC(=O)CNC(=O)[C@H](Cc1c[nH]cn1)NC(=O)C(C)(C)NC(=O)CCc1c[nH]cn1)[C@@H](C)O)[C@@H](C)O)C(C)C)C(=O)N[C@H](C(=O)O)[C@@H](C)O)C(=O)O)C(=O)O)C(=O)O)C(=O)O [Example 4, N^ϵ28-[(4S)-4-[[(4S)-4-[[(4S)-4-[[(4S)-4-acetamido-4-carboxybutanoyl]amino]-4-carboxybutanoyl]amino]-4-carboxybutanoyl]amino]-4-carboxybutanoyl]-[Imp1, Aib2, His3, Glu15, Ala24, Leu27, Lys28]-Glucagon] (Desaminohistidyl-[Aib]HGTFTSDYSKYLESRRAQDFVAWLLK([γGlu-γGlu-γGlu-γGlu-Ac])T-OH) | 100% | 5 pM
3 | CC(=O)N[C@@H](CCC(=O)N[C@@H](CCC(=O)N[C@@H](CCC(=O)N[C@@H](CCC(=O)NCCCC[C@H](NC(=O)[C@@H](NC(=O)[C@H](Cc1ccccc1)NC(=O)[C@H](CCC(=O)O)NC(=O)[C@H](CCC(N)=O)NC(=O)[C@H](C)NC(=O)[C@H](CCCNC(=N)N)NC(=O)[C@H](CCCNC(=N)N)NC(=O)[C@H](CC(C)C)NC(=O)[C@H](CC(=O)O)NC(=O)[C@H](CC(C)C)NC(=O)[C@H](Cc1ccc(O)cc1)NC(=O)[C@H](CCCCN)NC(=O)[C@H](CO)NC(=O)[C@H](Cc1ccc(O)cc1)NC(=O)[C@H](CC(=O)O)NC(=O)[C@H](CO)NC(=O)[C@@H](NC(=O)[C@H](Cc1ccccc1)NC(=O)[C@@H](NC(=O)CNC(=O)[C@H](Cc1c[nH]cn1)NC(=O)[C@H](CO)NC(=O)CCc1c[nH]cn1)[C@@H](C)O)[C@@H](C)O)C(C)C)C(=O)N[C@@H](Cc1c[nH]c2ccccc12)C(=O)N[C@@H](CC(C)C)C(=O)N[C@@H](CC(C)C)C(=O)N[C@@H](CO)C(=O)N[C@H](C(=O)O)[C@@H](C)O)C(=O)O)C(=O)O)C(=O)O)C(=O)O [Example 8, N^ϵ24-[(4S)-4-[[(4S)-4-[[(4S)-4-[[(4S)-4-acetamido-4-carboxybutanoyl]amino]-4-carboxybutanoyl]amino]-4-carboxybutanoyl]amino]-4-carboxybutanoyl]-[Imp1, His3, Leu16, Glu21, Lys24, Leu27, Ser28]-Glucagon] (Desaminohistidyl-SHGTFTSDYSKYLDLRRAQEFVK([γGlu-γGlu-γGlu-γGlu-Ac])WLLST-OH) | 103% | 1 pM
4 | CC(=O)N[C@@H](CCC(=O)N[C@@H](CCC(=O)N[C@@H](CCC(=O)N[C@@H](CCC(=O)NCCCC[C@H](NC(=O)[C@@H](NC(=O)[C@H](Cc1ccccc1)NC(=O)[C@H](CC(=O)O)NC(=O)[C@H](CCC(N)=O)NC(=O)[C@H](C)NC(=O)[C@H](CCCNC(=N)N)NC(=O)[C@H](CCCNC(=N)N)NC(=O)[C@@H](NC(=O)[C@H](CC(=O)O)NC(=O)[C@H](CC(C)C)NC(=O)[C@H](Cc1ccc(O)cc1)NC(=O)[C@H](CCCCN)NC(=O)[C@H](CO)NC(=O)[C@H](Cc1ccc(O)cc1)NC(=O)[C@H](CC(=O)O)NC(=O)[C@H](CO)NC(=O)[C@@H](NC(=O)[C@H](Cc1ccccc1)NC(=O)[C@@H](NC(=O)CNC(=O)[C@H](Cc1c[nH]cn1)NC(=O)C(C)(C)NC(=O)CCc1c[nH]cn1)[C@@H](C)O)[C@@H](C)O)C(C)C)C(C)C)C(=O)N[C@@H](Cc1c[nH]c2ccccc12)C(=O)N[C@@H](CC(C)C)C(=O)N[C@@H](CC(C)C)C(=O)N[C@@H](CO)C(=O)N[C@H](C(=O)O)[C@@H](C)O)C(=O)O)C(=O)O)C(=O)O)C(=O)O [Example 10, N^ϵ24-[(4S)-4-[[(4S)-4-[[(4S)-4-[[(4S)-4-acetamido-4-carboxybutanoyl]amino]-4-carboxybutanoyl]amino]-4-carboxybutanoyl]amino]-4-carboxybutanoyl]-[Imp1, Aib2, His3, Val16, Lys24, Leu27, Ser28]-Glucagon] (Desaminohistidyl-[Aib]HGTFTSDYSKYLDVRRAQDFVK([γGlu-γGlu-γGlu-γGlu-Ac])WLLST-OH) | 100% | 2 pM
